# Assay results taken from patent publication US12162858B2, “Quinoline derivatives as inhibitors of AXL/MER RTK and CSF1R” (QURIENT CO., LTD., priority 2018, dated 2024).
# Where two headings read alike, the source gives them in different places.
# Tests used:
# Mer = target: T1, Mer (Homo sapiens, UniProt Q12866); experiment: LanthaScreen Eu kinase binding assay for Mer
# T1 construct: purchased Life Technologies
# T1 sequence (Q12866 21-999): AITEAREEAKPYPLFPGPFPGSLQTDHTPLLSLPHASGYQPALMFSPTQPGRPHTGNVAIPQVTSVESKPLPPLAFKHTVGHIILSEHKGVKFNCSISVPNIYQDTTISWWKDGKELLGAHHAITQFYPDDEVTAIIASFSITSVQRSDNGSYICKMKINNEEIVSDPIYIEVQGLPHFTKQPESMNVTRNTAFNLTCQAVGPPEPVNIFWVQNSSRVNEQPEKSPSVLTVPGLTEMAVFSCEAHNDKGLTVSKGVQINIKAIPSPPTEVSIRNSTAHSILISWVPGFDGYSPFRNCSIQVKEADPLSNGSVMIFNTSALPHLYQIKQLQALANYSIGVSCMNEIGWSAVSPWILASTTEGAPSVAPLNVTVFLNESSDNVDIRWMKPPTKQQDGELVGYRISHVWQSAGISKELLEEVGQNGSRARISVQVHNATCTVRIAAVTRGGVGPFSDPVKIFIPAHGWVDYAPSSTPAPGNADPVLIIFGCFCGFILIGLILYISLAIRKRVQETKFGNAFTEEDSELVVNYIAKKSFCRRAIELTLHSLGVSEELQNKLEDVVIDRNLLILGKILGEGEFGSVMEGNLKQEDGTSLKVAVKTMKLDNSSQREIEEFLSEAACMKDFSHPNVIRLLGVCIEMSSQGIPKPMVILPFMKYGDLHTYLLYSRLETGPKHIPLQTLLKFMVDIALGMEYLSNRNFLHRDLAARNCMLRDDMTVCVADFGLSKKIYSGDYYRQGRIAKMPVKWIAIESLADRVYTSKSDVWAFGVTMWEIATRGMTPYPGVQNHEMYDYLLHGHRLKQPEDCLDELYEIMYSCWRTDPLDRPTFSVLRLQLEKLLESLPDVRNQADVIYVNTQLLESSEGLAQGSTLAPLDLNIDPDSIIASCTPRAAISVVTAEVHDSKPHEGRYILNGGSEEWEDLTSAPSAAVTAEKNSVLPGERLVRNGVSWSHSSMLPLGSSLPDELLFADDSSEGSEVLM
# Procedure: LanthaScreen® Eu Kinase Binding assays were conducted at Life Technologies using the manufacturer's specifications for each kinase indicated.
# Briefly, the principle behind this assay is based upon the binding and displacement of an Alexa Fluor 647-labeled tracer to the kinase of interest. Binding of the tracer to the kinase is detected using an EU-labeled anti-tag antibody. Simultaneous binding of both the tracer and antibody to the kinase gives rise to a FRET-signal. Binding of an inhibitor to the kinase competes for binding with the tracer, resulting in a loss of FRET-signal.
# A given compound was diluted in DMSO to make a stock compound solution. The stock compound solution was serially diluted over eight steps in DMSO. Each diluted compound solution in DMSO was diluted in kinase buffer. Afterwards four kinds of working solution were prepared. First, Tracer-Working solution consists of Tracer 236 and Kinase Buffer. Second, Axl, Mer, Tyro3 or Met/anti-GST-AB-Working solution contained one of the kinases Axl, and Mer or anti-GST-AB (=anti glutathione-S-transferase antibody) in Kinase Buffer. Third, anti-GST-AB-Working solution was made with anti-GST-AB and Kinase Buffer. Last, in the DMSO-Working solution DMSO was added to Kinase Buffer to a final concentration to 3%. Each of the four kinds of working solutions were separately added to the assay plate and then incubated for 1 h at room temperature. After incubation, the assay plate was measured with respect to the FRET-Signal with the EnVision (Perkin Elmer) using the program LanthaHTRF-Assay. Data evaluation was done in the Quattro Workflow software. Kd (the equilibrium dissociation constant) values were calculated relative to vehicle (DMSO) control wells.
# CSF1R (M-NFS-60 cells) = experiment: Cell Titer-Glo viability assay using M-NFS-60 cells; assay type: cell-based; conditions: Mus musculus, read-out: Cellular CSF1R activity by M-NFS-60 viability assay (IC50 activity range)
# Procedure: M-NFS-60 cells were cultured in RPMI-1640 medium containing 10% FBS, 0.05 mM 2-Mercaptoethanol, penicillin (100 U/ml)/streptomycin ([…]) and supplemented with 62 ng/ml recombinant human M-CSF at 37° C./5% CO2. Aliquots of the cells were seeded into a 96-well plate (2×10^5 cells in 100 μl/well) and then incubated at 37° C./5% CO2 1 h. Dissolve compound in 100% DMSO to make 10 mM stock solutions (Aliquots stored in the Nitrogen Cabinet). Dilute 10 mM compounds solutions for 2-fold in 100% DMSO to get 5 mM solutions (10 μl+10 μl DMSO), and then make a 3-fold serial dilution (10 μl+20 μl DMSO) for 10 doses. For reference compounds: Dilute 10 mM compounds solutions for 20-fold in 100% DMSO to get 0.5 mM solutions (2 μl+38 μl DMSO), and then make a 3-fold serial dilution (10 μl+20 μl DMSO) for 8 doses. The 96-well plate was equilibrated at room temperature for 30 min. 50 μl of CellTiter-Glo® Reagent added to each well and mixed for 2 min on an orbital shaker to induce cell lysis. The 96-well plate was incubated at room temperature for 10 min to stabilize luminescent signal. Luminescent was measured […] by EnVison plate reader. Calculations and Formulas: The following calculations and formulas are used for data analysis using XL Fit software: The curve fitting was made using the Sigmoidal Dose-Response Model (Fit model, 205).
# [1] = comparison of compounds of present invention (**) vs compounds of WO2016/166250 (*), read-out: Binding activity Mer (Kd)
# [2] = read-out: Mer kinase binding activity (Kd)
SMILES,Kd (Mer; [1]),Kd (Mer; [2]),IC50 (CSF1R (M-NFS-60 cells))
CCn1cc(OCC(F)(F)F)c(C(=O)Nc2ccc(Oc3ccnc4cc(OC)c(OC)cc34)cn2)n1 [Compound 4],0.0016 µM,< 0.1 µM,< 1 µM
CCn1cc(OC(C)C)c(C(=O)Nc2ccc(Oc3ccnc4cc(OC)c(OC)cc34)cn2)n1 [Compound 6],–,< 0.1 µM,< 1 µM
CCCn1cc(OCC(F)(F)F)c(C(=O)Nc2ccc(Oc3ccnc4cc(OC)c(OC)cc34)cn2)n1 [Compound 7],–,< 0.1 µM,< 1 µM
CCn1cc(OCC2CCC2)c(C(=O)Nc2ccc(Oc3ccnc4cc(OC)c(OC)cc34)cn2)n1 [Compound 8],–,< 0.1 µM,< 1 µM
COc1cc2nccc(Oc3ccc(NC(=O)c4nn(CCN(C)C)cc4OCC(F)(F)F)nc3)c2cc1OC [Compound 9],–,< 0.1 µM,< 1 µM
COCCn1cc(OCC(F)(F)F)c(C(=O)Nc2ccc(Oc3ccnc4cc(OC)c(OC)cc34)cn2)n1 [Compound 10],0.0002 µM,< 0.1 µM,< 1 µM
CNCCn1cc(OCC(F)(F)F)c(C(=O)Nc2ccc(Oc3ccnc4cc(OC)c(OC)cc34)cn2)n1 [Compound 11],–,< 0.1 µM,< 1 µM
CCCn1cc(OCC(F)F)c(C(=O)Nc2ccc(Oc3ccnc4cc(OC)c(OC)cc34)cn2)n1 [Compound 12],–,< 0.1 µM,< 1 µM
COc1cc2nccc(Oc3ccc(NC(=O)c4n[nH]cc4OCC(F)(F)F)nc3)c2cc1OC [Compound 16],0.012 µM,< 0.1 µM,< 1 µM
COc1cc2nccc(Oc3ccc(NC(=O)c4nn(CC5COC5)cc4OCC(F)(F)F)nc3)c2cc1OC [Compound 92],0.0013 µM,< 0.1 µM,< 1 µM
COc1cc2nccc(Oc3ccc(NC(=O)c4nn(C5CCN(C)C5)cc4OCC(F)(F)F)cc3F)c2cc1OC (stereo not shown) [Compound 96],–,< 0.1 µM,1 to 10 µM
COc1cc2nccc(Oc3ccc(NC(=O)c4nn(CC5COC5)cc4OCC(F)(F)F)cc3F)c2cc1OC [Compound 97],–,< 0.1 µM,1 to 10 µM
COc1cc2nccc(Oc3ccc(NC(=O)c4nn(C5CCN(C)C5)cc4OCC(F)(F)F)cc3C)c2cc1OC (stereo not shown) [Compound 98],–,< 0.1 µM,1 to 10 µM
COc1cc2nccc(Oc3ccc(NC(=O)c4nn(CC5COC5)cc4OCC(F)(F)F)cc3C)c2cc1OC [Compound 99],–,< 0.1 µM,1 to 10 µM
COc1cc2nccc(Oc3ccc(NC(=O)c4nn(C5CCN(C)C5)cc4OCC(F)(F)F)cc3)c2cc1OC (stereo not shown) [Compound 100],–,< 0.1 µM,1 to 10 µM
COc1cc2nccc(Oc3ccc(NC(=O)c4nn(CC5COC5)cc4OCC(F)(F)F)cc3)c2cc1OC [Compound 101],–,< 0.1 µM,1 to 10 µM
COc1cc2nccc(Oc3ccc(NC(=O)c4nn(C)cc4OCC(F)(F)F)nn3)c2cc1OC [Compound 102],–,< 0.1 µM,1 to 10 µM

SMILES,Kd (Mer; [1]),Kd (Mer; [2]),IC50 (CSF1R (M-NFS-60 cells))
COc1cc2nccc(Oc3ccc(NC(=O)c4nn(CC(C)C)cc4OCC(F)(F)F)cn3)c2cc1OC [Compound 103],–,< 0.1 µM,1 to 10 µM
COCCn1cc(OCC(F)(F)F)c(C(=O)Nc2ccc(Oc3ccnc4cc(OC)c(OC)cc34)nc2)n1 [Compound 104],–,< 0.1 µM,≥ 10 µM
CCCn1cc(OCCOC)c(C(=O)Nc2ccc(Oc3ccnc4cc(OC)c(OC)cc34)cn2)n1 [Compound 105],–,< 0.1 µM,< 1 µM
CCCn1cc(OCC2COC2)c(C(=O)Nc2ccc(Oc3ccnc4cc(OC)c(OC)cc34)cn2)n1 [Compound 106],–,< 0.1 µM,< 1 µM
COCCOc1cn(C2CC2)nc1C(=O)Nc1ccc(Oc2ccnc3cc(OC)c(OC)cc23)cn1 [Compound 107],–,< 0.1 µM,1 to 10 µM
COc1cc2nccc(Oc3ccc(NC(=O)c4nn(C5CC5)cc4OC(C)C)nc3)c2cc1OC [Compound 108],–,< 0.1 µM,< 1 µM
COc1cc2nccc(Oc3ccc(NC(=O)c4nn(C5CC5)cc4OCC(F)F)nc3)c2cc1OC [Compound 109],–,< 0.1 µM,< 1 µM
COc1cc2nccc(Oc3ccc(NC(=O)c4nn(C5CC5)cc4OCCF)nc3)c2cc1OC [Compound 110],–,< 0.1 µM,< 1 µM
COc1cc2nccc(Oc3ccc(NC(=O)c4nn(C5CC5)cc4OCC4CCC4)nc3)c2cc1OC [Compound 111],–,< 0.1 µM,1 to 10 µM
COc1cc2nccc(Oc3ccc(NC(=O)c4nn(C5CC5)cc4OCC(F)(F)F)nn3)c2cc1OC [Compound 112],–,< 0.1 µM,1 to 10 µM
COc1cc2nccc(Oc3ccc(NC(=O)c4nn(C5CC5)cc4OCCF)nn3)c2cc1OC [Compound 113],–,< 0.1 µM,1 to 10 µM
CCCn1cc(OCC(F)(F)F)c(C(=O)Nc2ccc(Oc3ccnc4cc(OC)c(OC)cc34)c(C(F)(F)F)c2)n1 [Compound 114],–,< 0.1 µM,1 to 10 µM
COc1cc2nccc(Oc3ccc(NC(=O)c4nn(CCOC5CC5)cc4OCC(F)(F)F)c(F)c3)c2cc1OC [Compound 115],–,< 0.1 µM,1 to 10 µM
COc1cc2nccc(Oc3ccc(NC(=O)c4nn(CCOC5CC5)cc4OCC(F)(F)F)cc3F)c2cc1OC [Compound 116],–,< 0.1 µM,1 to 10 µM
COc1cc2nccc(Oc3ccc(NC(=O)c4nn(CCOC5CC5)cc4OCC(F)(F)F)cc3C)c2cc1OC [Compound 117],–,< 0.1 µM,< 1 µM
COc1cc2nccc(Oc3ccc(NC(=O)c4nn(CCOC5CC5)cc4OCC(F)(F)F)cc3)c2cc1OC [Compound 118],–,< 0.1 µM,1 to 10 µM
